System: cell lines from the Cancer Cell Line Encyclopedia (CCLE)
Assay: High-throughput cell viability assay, CCLE cell line panel (n = 356)
Assay type: cell-based, human
Procedure: Cell lines were partitioned into sensitive and insensitive groups based on compound potency (IC50). […] All other cell lines were obtained from ATCC (American Type Culture Collection), DSMZ (Deutsche Sammlung von Mikroorganismen und Zellkulturen), and HSRRB (Health Science Research Resources Bank) and cultured in RPMI or Dulbecco's modified Eagle's medium plus 10% FBS (Invitrogen, Carlsbad, CA) at 37°C, 5% CO2.

[1] = PE/CA-PJ34 (clone C12), TP53 MUT
[2] = cell line A172, central_nervous_system, TP53 WT
[3] = cell line BICR 31, upper_aerodigestive_tract, TP53 MUT
[4] = cell line CAL-85-1, breast, TP53 MUT
[5] = cell line CAMA-1, breast, TP53 MUT
[6] = cell line CCK-81, large_intestine, TP53 MUT
[7] = cell line COV504, ovary, TP53 MUT
[8] = cell line Capan-2, pancreas, TP53 WT
[9] = cell line ES-2, ovary, TP53 MUT
[10] = cell line ESS-1, endometrium, TP53 MUT
[11] = cell line HEC-108, endometrium, TP53 MUT
[12] = cell line HEC-265, endometrium, TP53 WT
[13] = cell line HSC-2, upper_aerodigestive_tract, TP53 MUT
[14] = cell line Hs 618.T, lung, TP53 WT
[15] = cell line Hs 888.T, bone, TP53 WT
[16] = cell line Hs 944.T, skin, TP53 WT
[17] = cell line IM95, stomach, TP53 WT

## COc1cc2c(cc1OC(C)C)[C@H](c1ccc(Cl)cc1)N(c1ccc(N(C)C[C@H]3CC[C@H](N4CCNC(=O)C4)CC3)cc1)C(=O)C2 [NVP-CFC218]
ONS-76, TP53 WT
  Amax: -16.12%
  sensitivity call: insensitive (Sensitivity call for each compound was applied according to a cut-off of 4 µM for IC50 and -50% for Amax)
OV-90, TP53 MUT
  Amax: -1.39%
  sensitivity call: insensitive (Sensitivity call for each compound was applied according to a cut-off of 4 µM for IC50 and -50% for Amax)
P3HR-1, TP53 MUT
  Amax: -48.91%
  sensitivity call: insensitive (Sensitivity call for each compound was applied according to a cut-off of 4 µM for IC50 and -50% for Amax)
P31/FUJ, TP53 MUT
  Amax: 4.23%
  sensitivity call: insensitive (Sensitivity call for each compound was applied according to a cut-off of 4 µM for IC50 and -50% for Amax)
PA-TU-8902, TP53 MUT
  Amax: 0.96%
  sensitivity call: insensitive (Sensitivity call for each compound was applied according to a cut-off of 4 µM for IC50 and -50% for Amax)
[1]
  Amax: 1.01%
  sensitivity call: insensitive (Sensitivity call for each compound was applied according to a cut-off of 4 µM for IC50 and -50% for Amax)
PK-45H, TP53 WT
  Amax: -18.84%
  sensitivity call: insensitive (Sensitivity call for each compound was applied according to a cut-off of 4 µM for IC50 and -50% for Amax)
PL-21, TP53 MUT
  Amax: -37.95%
  sensitivity call: insensitive (Sensitivity call for each compound was applied according to a cut-off of 4 µM for IC50 and -50% for Amax)
QGP-1, TP53 WT
  Amax: 6.30%
  sensitivity call: insensitive (Sensitivity call for each compound was applied according to a cut-off of 4 µM for IC50 and -50% for Amax)
Raji, TP53 MUT
  Amax: -0.41%
  sensitivity call: insensitive (Sensitivity call for each compound was applied according to a cut-off of 4 µM for IC50 and -50% for Amax)
SCC-4, TP53 MUT
  Amax: -11.24%
  sensitivity call: insensitive (Sensitivity call for each compound was applied according to a cut-off of 4 µM for IC50 and -50% for Amax)
SCC-9, TP53 MUT
  Amax: 10.57%
  sensitivity call: insensitive (Sensitivity call for each compound was applied according to a cut-off of 4 µM for IC50 and -50% for Amax)
SK-N-FI, TP53 MUT
  Amax: -7.80%
  sensitivity call: insensitive (Sensitivity call for each compound was applied according to a cut-off of 4 µM for IC50 and -50% for Amax)
SNU-475, TP53 MUT
  Amax: -7.74%
  sensitivity call: insensitive (Sensitivity call for each compound was applied according to a cut-off of 4 µM for IC50 and -50% for Amax)
SU-DHL-8, TP53 MUT
  Amax: 11.70%
  sensitivity call: insensitive (Sensitivity call for each compound was applied according to a cut-off of 4 µM for IC50 and -50% for Amax)
SW579, TP53 MUT
  Amax: -2.22%
  sensitivity call: insensitive (Sensitivity call for each compound was applied according to a cut-off of 4 µM for IC50 and -50% for Amax)
SW 1271, TP53 MUT
  Amax: -7.26%
  sensitivity call: insensitive (Sensitivity call for each compound was applied according to a cut-off of 4 µM for IC50 and -50% for Amax)
SW 1990, TP53 MUT
  Amax: -0.73%
  sensitivity call: insensitive (Sensitivity call for each compound was applied according to a cut-off of 4 µM for IC50 and -50% for Amax)
TE-1, TP53 MUT
  Amax: -0.82%
  sensitivity call: insensitive (Sensitivity call for each compound was applied according to a cut-off of 4 µM for IC50 and -50% for Amax)
TE-5, TP53 MUT
  Amax: 31.38%
  sensitivity call: insensitive (Sensitivity call for each compound was applied according to a cut-off of 4 µM for IC50 and -50% for Amax)
U-87 MG, TP53 WT
  Amax: -45.86%
  sensitivity call: insensitive (Sensitivity call for each compound was applied according to a cut-off of 4 µM for IC50 and -50% for Amax)
WM-266-4, TP53 WT
  Amax: -75.96%
  sensitivity call: sensitive (Sensitivity call for each compound was applied according to a cut-off of 4 µM for IC50 and -50% for Amax)
WM-983B, TP53 MUT
  Amax: -25.79%
  sensitivity call: insensitive (Sensitivity call for each compound was applied according to a cut-off of 4 µM for IC50 and -50% for Amax)
YKG1, TP53 MUT
  Amax: -29.61%
  sensitivity call: insensitive (Sensitivity call for each compound was applied according to a cut-off of 4 µM for IC50 and -50% for Amax)
[2]
  NVP- CFC218 Amax (%): -49.68%
  NVP- CFC218 sensitivity call: insensitive (Sensitivity call for each compound was applied according to a cut-off of 4 µM for IC50 and -50% for Amax)
[3]
  NVP- CFC218 Amax (%): -33.34%
  NVP- CFC218 sensitivity call: insensitive (Sensitivity call for each compound was applied according to a cut-off of 4 µM for IC50 and -50% for Amax)
Cell line C3A, liver, TP53 WT
  NVP- CFC218 Amax (%): -7.36%
  NVP- CFC218 sensitivity call: insensitive (Sensitivity call for each compound was applied according to a cut-off of 4 µM for IC50 and -50% for Amax)
Cell line C32, skin, TP53 WT
  NVP- CFC218 Amax (%): -3.08%
  NVP- CFC218 sensitivity call: insensitive (Sensitivity call for each compound was applied according to a cut-off of 4 µM for IC50 and -50% for Amax)
[4]
  NVP- CFC218 Amax (%): -3.57%
  NVP- CFC218 sensitivity call: insensitive (Sensitivity call for each compound was applied according to a cut-off of 4 µM for IC50 and -50% for Amax)
[5]
  NVP- CFC218 Amax (%): -26.17%
  NVP- CFC218 sensitivity call: insensitive (Sensitivity call for each compound was applied according to a cut-off of 4 µM for IC50 and -50% for Amax)
[6]
  NVP- CFC218 Amax (%): 4.13%
  NVP- CFC218 sensitivity call: insensitive (Sensitivity call for each compound was applied according to a cut-off of 4 µM for IC50 and -50% for Amax)
[7]
  NVP- CFC218 Amax (%): -21.97%
  NVP- CFC218 sensitivity call: insensitive (Sensitivity call for each compound was applied according to a cut-off of 4 µM for IC50 and -50% for Amax)
[8]
  NVP- CFC218 Amax (%): -4.99%
  NVP- CFC218 sensitivity call: insensitive (Sensitivity call for each compound was applied according to a cut-off of 4 µM for IC50 and -50% for Amax)
[9]
  NVP- CFC218 Amax (%): -22.65%
  NVP- CFC218 sensitivity call: insensitive (Sensitivity call for each compound was applied according to a cut-off of 4 µM for IC50 and -50% for Amax)
[10]
  NVP- CFC218 Amax (%): 0.05%
  NVP- CFC218 sensitivity call: insensitive (Sensitivity call for each compound was applied according to a cut-off of 4 µM for IC50 and -50% for Amax)
[11]
  NVP- CFC218 Amax (%): -7.25%
  NVP- CFC218 sensitivity call: insensitive (Sensitivity call for each compound was applied according to a cut-off of 4 µM for IC50 and -50% for Amax)
[12]
  NVP- CFC218 Amax (%): -37.19%
  NVP- CFC218 sensitivity call: insensitive (Sensitivity call for each compound was applied according to a cut-off of 4 µM for IC50 and -50% for Amax)
[13]
  NVP- CFC218 Amax (%): 8.13%
  NVP- CFC218 sensitivity call: insensitive (Sensitivity call for each compound was applied according to a cut-off of 4 µM for IC50 and -50% for Amax)
[14]
  NVP- CFC218 Amax (%): -49.34%
  NVP- CFC218 sensitivity call: insensitive (Sensitivity call for each compound was applied according to a cut-off of 4 µM for IC50 and -50% for Amax)
[15]
  NVP- CFC218 Amax (%): -45.50%
  NVP- CFC218 sensitivity call: insensitive (Sensitivity call for each compound was applied according to a cut-off of 4 µM for IC50 and -50% for Amax)
[16]
  NVP- CFC218 Amax (%): -32.86%
  NVP- CFC218 sensitivity call: insensitive (Sensitivity call for each compound was applied according to a cut-off of 4 µM for IC50 and -50% for Amax)
[17]
  NVP- CFC218 Amax (%): 33.79%
  NVP- CFC218 sensitivity call: insensitive (Sensitivity call for each compound was applied according to a cut-off of 4 µM for IC50 and -50% for Amax)
Cell line JHOS-2, ovary, TP53 MUT
  NVP- CFC218 Amax (%): -32.44%

Reference: article PMC4468608, “A distinct p53 target gene set predicts for response to the selective p53–HDM2 inhibitor NVP-CGM097” (eLife, 2015)
